Measurements reported in patent US20140219995A1, “INHIBITORS OF BACTERIAL TYPE III SECRETION SYSTEM” (priority 2011, published 2014).
Like-named read-outs stand apart in the source and are kept apart here.

Experiments:
[1] = tested on: T3SS-mediated secretion of ExoS′-βLA fusion protein, P. aeruginosa strain MDM973; experiment: Effector-β-lactamase (ExoS′-βLA) secretion assay; format: cell-based, Pseudomonas aeruginosa; conditions: for IC50: Pseudomonas aeruginosa
From the text: Effector-β-Lactamase (βLA) Secretion Assays.
P. aeruginosa. A gene encoding an ExoS'-β-lactamase (βLA) fusion protein (comprised of 234 codons of P. aeruginosa effector ExoS fused to the TEM-1 β-lactamase gene lacking secretion signal codons) was constructed by splicing by overlap extension PCR (SOE-PCR) (Choi and Schweizer, 2005, BMC Microbiol., 5:30) using primers 5-10 (Table 3, above), sequence confirmed, cloned into lacI^Q-containing GATEWAY® vector pUCP24GW (see Moir, et al., 2007, J Biomol. Screen., 12:855-64) behind the lac promoter, and introduced into P. aeruginosa by electroporation (see Choi, et al., 2006, J. Microbiol. Methods, 64:391-7). Secretion of fusion proteins was detected by measuring the hydrolysis of the chromogenic β-lactamase substrate nitrocefin in clear 96-well microplates in a modification of a previously described assay (Lee, et al., 2007, Infect. Immun., 75:1089-98). Cells of strain MDM973 (PAK/pUCP24GW-exoS:blaM) were sub-cultured in the morning from overnight growths in LBG into 0.1 ml of LBGIE with or without test compounds and grown for 150 min. Nitrocefin (100 μg/ml final) was added, and A490 measurements taken every minute for 15 min in a Victor^3V 1420 Multilabel HTS Counter (PerkinElmer). Slopes were calculated as a relative measure of the quantity of the effector-βLA fusion protein secreted and were absolutely dependent on induction with IPTG, EGTA, and the presence of a functional pscC gene in the P. aeruginosa cells. Typical signal:background ratios were 6-10.

[2] = tested on: T3SS-mediated cytotoxicity of translocated effector protein ExoU in CHO cells; experiment: Inhibition of P. aeruginosa ExoU-dependent CHO cell killing (translocation, LDH release); format: cell-based; conditions: Pseudomonas aeruginosa
From the text: Inhibition of P. aeruginosa ExoU-Dependent CHO Cell Killing.
Pseudolipasin, which acts by direct inhibition of the ExoU phospholipase, was used as control inhibitor (Lee, et al, 2007, Infect. Immun., 75:1089-98).

[3] = read-out: Avg. Translocation IC50

Compound	IC50 ([1]; read-out: Avg. Secretion IC50) [µM]	melting point [°C]	IC50 [2, 3] [µM]	other results
O=C(COc1ccc(Cl)cc1Cl)NCc1ccc2c(c1)OCO2 [MBX-1668]	> 100	117		effect of structural alteration on T3SS-mediated secretion inhibition ([1]; vs. MBX-1641): significantly inferior performance
C[C@@H](Oc1ccc(Cl)cc1Cl)C(=O)NCc1ccc2c(c1)OCO2 [MBX-1684]	3.7			
CC(C)(Oc1ccc(Cl)cc1Cl)C(=O)NCc1ccc2c(c1)OCO2 [MBX-1685]	> 100	92		effect of structural alteration on T3SS-mediated secretion inhibition ([1]; vs. MBX-1641): significantly inferior performance
COc1ccc(CNC(=O)C(C)Oc2ccc(Cl)cc2Cl)cc1 (stereo not drawn) [MBX-1940]		76	12.5	
COc1cccc(CNC(=O)C(C)Oc2ccc(Cl)cc2Cl)c1 (stereo not drawn) [MBX-1941]	17.2	119		
COc1ccc(CNC(=O)C(C)Oc2ccc(Cl)cc2Cl)cc1OC (stereo not drawn) [MBX-1942]		127	> 100	
COc1cc(CNC(=O)C(C)Oc2ccc(Cl)cc2Cl)cc(OC)c1 (stereo not drawn) [MBX-1943]	18.8	111	23.7	
COc1cc(CNC(=O)C(C)Oc2ccc(Cl)cc2Cl)cc(OC)c1OC (stereo not drawn) [MBX-1944]	55.5	119	> 100	
COc1ccc(OC)c(CNC(=O)C(C)Oc2ccc(Cl)cc2Cl)c1 (stereo not drawn) [MBX-1947]	34.8	67	> 100	
COc1cccc(CNC(=O)C(C)Oc2ccc(Cl)cc2Cl)c1OC (stereo not drawn) [MBX-1948]	10.1	130	> 100	
COc1ccc(CNC(=O)C(C)Oc2ccc(Cl)cc2Cl)c(OC)c1 (stereo not drawn) [MBX-1949]	16.9	117		
Cc1ccccc1CNC(=O)C(C)Oc1ccc(Cl)cc1Cl (stereo not drawn) [MBX-1951]		128	66.7	
CC(Oc1ccc(Cl)cc1Cl)C(=O)NCc1ccccc1Cl (stereo not drawn) [MBX-1956]		113	52.3	
CC(Oc1ccc(Cl)cc1Cl)C(=O)NCc1ccccc1N(C)C (stereo not drawn) [MBX-1959]	18.6	85	60	
CC(Oc1ccc(Cl)cc1Cl)C(=O)NCc1cccc(N(C)C)c1 (stereo not drawn) [MBX-1960]	12.2	108	58	
CC(Oc1ccc(Cl)cc1Cl)C(=O)NCc1ccc(N2CCCC2=O)cc1 (stereo not drawn) [MBX-1987]	18.8	138	20	
CC(Oc1ccc(Cl)cc1Cl)C(=O)NCc1ccc2c(c1)n(C)c(=O)n2C (stereo not drawn) [MBX-1996]	25.5	180	> 100	
COc1cc2c(cc1CNC(=O)C(C)Oc1ccc(Cl)cc1Cl)OCCO2 (stereo not drawn) [MBX-1998]	17.6	152	51.4	
CC(Oc1ccc(Cl)cc1Cl)C(=O)NCc1ccc2c(c1)OCCCO2 (stereo not drawn) [MBX-1999]	23.9	115	> 100	
CC(Oc1ccc(Cl)cc1Cl)C(=O)NCc1ccc2c(c1)CCCN2C (stereo not drawn) [MBX-2000]	25.7	119	> 100	
CC1Cc2cc(CNC(=O)C(C)Oc3ccc(Cl)cc3Cl)ccc2O1 (stereo not drawn) [MBX-2001]	14	100	84	
CC(Oc1ccc(Cl)cc1Cl)C(=O)NCc1ccc(-c2ccccc2)cc1 (stereo not drawn) [MBX-2022]	100	114		
CC(Oc1ccc(F)cc1Cl)C(=O)NCc1ccc2c(c1)OCO2 (stereo not drawn) [MBX-2026]		95		
COc1ccc(CNC(=O)C(C)Oc2ccc(F)cc2Cl)cc1OC (stereo not drawn) [MBX-2027]	100	101		
COc1ccc(CNC(=O)C(C)Oc2ccc(F)cc2Cl)cc1 (stereo not drawn) [MBX-2028]	75.3	97	> 100	
CC(Oc1ccc(F)cc1Cl)C(=O)NCc1ccc(F)cc1 (stereo not drawn) [MBX-2029]	52.1	95	> 100	
COc1cc(OC)c(OC)cc1CNC(=O)C(C)Oc1ccc(Cl)cc1Cl (stereo not drawn) [MBX-2030]	74.5	142	> 100	

Compound	IC50 ([1]; read-out: Avg. Secretion IC50) [µM]	melting point [°C]	IC50 [2, 3] [µM]	other results
CC(C)C(Oc1ccc(Cl)cc1Cl)C(=O)NCc1ccc2c(c1)OCO2 (stereo not drawn) [MBX-2146]				effect of structural alteration on T3SS-mediated secretion inhibition ([1]; vs. MBX-1641): significantly inferior performance
COc1ccc(CNC(=O)C(C)Oc2ncc(Cl)cc2Cl)cc1OC (stereo not drawn) [MBX-2156]	24	156	> 100	
COc1ccc(CNC(=O)C(C)Oc2ncc(Cl)cc2Cl)cc1 (stereo not drawn) [MBX-2157]	9.9	135	> 100	
CC(Oc1ccc(Cl)cc1Cl)C(=O)N(C)Cc1ccc2c(c1)OCO2 (stereo not drawn) [MBX-2160]	10.1		24.3	effect of structural alteration on T3SS-mediated secretion inhibition ([1]; vs. MBX-1641): slightly negative impact
CC(Sc1ccc(Cl)cc1Cl)C(=O)NCc1ccc2c(c1)OCO2 (stereo not drawn) [MBX-2161]	5	137		IC50 values lower (T3SS secretion inhibition) ([1]; vs. MBX-1641): 29%
COc1ccc(CNC(=O)C(C)Sc2ccc(Cl)cc2Cl)cc1OC (stereo not drawn) [MBX-2162]	30.4	112	> 100	
CC(Sc1ccc(Cl)cc1Cl)C(=O)NCc1ccc(F)cc1 (stereo not drawn) [MBX-2164]	4	142		
CC(Oc1ccc(Cl)cc1Cl)C(=O)NC(C)c1ccc2c(c1)OCO2 (stereo not drawn) [MBX-2187]	3.8	109	11	
CC(Oc1ccc(Cl)cc1Cl)C(=O)N1CCc2cc3c(cc2C1)OCO3 (stereo not drawn) [MBX-2188]	114			IC50 ([1]; read-out: Secretion IC50): 114 µM
CC(Oc1ccc(Cl)cc1Cl)C(=O)N1CCc2cc(F)ccc2C1 (stereo not drawn) [MBX-2189]	111			IC50 ([1]; read-out: Secretion IC50): 111 µM
CC(Oc1ccc(Cl)cc1Cl)C(=O)N1CCc2ccc(F)cc2C1 (stereo not drawn) [MBX-2190]	95.6		> 100	IC50 ([1]; read-out: Secretion IC50): 95.6 µM; IC50 ([2]; read-out: Translocation IC50): ≥ 100 µM
COc1ccc(CNC(=O)C(C)Nc2ccc(Cl)cc2Cl)cc1OC (stereo not drawn) [MBX-2213]	58.7	132		
COc1ccc(CNC(=O)C(C)Nc2ccc(Cl)cc2Cl)cc1 (stereo not drawn) [MBX-2214]	24.5	125		
CC(Nc1ccc(Cl)cc1Cl)C(=O)NCc1ccc(F)cc1 (stereo not drawn) [MBX-2215]	17.2			
CC(Oc1ccc(Cl)cc1Cl)C(=O)NCCCc1ccc(F)cc1 (stereo not drawn) [MBX-2622]	> 100	112		
CC(Oc1ccc(Cl)cc1Cl)C(=O)NC(CO)c1ccc(F)cc1 (stereo not drawn) [MBX-2625]	5			
CC(Oc1ccc(Cl)cc1Cl)c1nc(-c2ccc(F)cc2)no1 (stereo not drawn) [MBX-2667, 5-[1-(2,4-dichlorophenoxy)ethyl]-3-(4-fluorophenyl)-1,2,4-oxadiazole]	> 100	77		
CC(Oc1ccc(Cl)cc1Cl)C(=O)NCc1ccc(F)nc1 (stereo not drawn) [MBX-2677]	40	55		
COC(=O)C(NC(=O)C(C)Oc1ccc(Cl)cc1Cl)c1ccc(F)cc1 (stereo not drawn) [MBX-2705]	6	84		
CC(Oc1ccc(Cl)cc1Cl)C(=O)NC(C(=O)O)c1ccc(F)cc1 (stereo not drawn) [MBX-2707]	> 100	160		
CC(Oc1ccc(Cl)cc1Cl)c1nc(Cc2ccc(F)cc2)no1 (stereo not drawn) [MBX-2708, 5-[1-(2,4-dichlorophenoxy)ethyl]-3-(4-fluorobenzyl)-1,2,4-oxadiazole]	> 100			
CC(Oc1ccc(Cl)cc1Cl)C(=O)NCc1cnc2[nH]ccc2c1 (stereo not drawn) [MBX-2709]	8.8	198		
CC(Oc1ncc(Cl)cc1Cl)C(=O)NCc1ccc(C2(C(F)(F)F)N=N2)cc1 (stereo not drawn) [MBX-2713]	> 100	112		
CC(Oc1ccc(Cl)cc1Cl)C(=O)OCCc1ccc(F)cc1 (stereo not drawn) [MBX-2717, 4-fluorophenethyl 2-(2,4-dichlorophenoxy)propanoate]	> 100			
CC(Oc1ccc(Cl)cc1Cl)C(=O)NCc1ccc(C2(C(F)(F)F)N=N2)cc1 (stereo not drawn) [MBX-2718]	> 100	117		
CC(Oc1ccc(Cl)cc1Cl)C(=O)CCc1ccc(F)cc1 (stereo not drawn) [MBX-2719, 4-(2,4-dichlorophenoxy)-1-(4-fluorophenyl)pentan-3-one]	> 100			
